From US5475014A, “Oxazolidone derivative” (Eisai Co., Ltd., priority 1991, dated 1995)

How the values were obtained:
MAO-A = target: T1, MAO-A (Rattus norvegicus, UniProt P21396); experiment: MAO-A inhibition activity with rat forebrain (14C-5-HT substrate); assay type: biochemical, rat (male Wistar); details: 5-HT 200 μM, read-out: Inhibiting activity MAO-A, IC50
T1 construct: suspension of 1 part by volume of the forebrains of male Wistar rats; from tissue; host or cells: forebrain of male Wistar rats, suspension in potassium phosphate buffer
T1 sequence (P21396 1-526): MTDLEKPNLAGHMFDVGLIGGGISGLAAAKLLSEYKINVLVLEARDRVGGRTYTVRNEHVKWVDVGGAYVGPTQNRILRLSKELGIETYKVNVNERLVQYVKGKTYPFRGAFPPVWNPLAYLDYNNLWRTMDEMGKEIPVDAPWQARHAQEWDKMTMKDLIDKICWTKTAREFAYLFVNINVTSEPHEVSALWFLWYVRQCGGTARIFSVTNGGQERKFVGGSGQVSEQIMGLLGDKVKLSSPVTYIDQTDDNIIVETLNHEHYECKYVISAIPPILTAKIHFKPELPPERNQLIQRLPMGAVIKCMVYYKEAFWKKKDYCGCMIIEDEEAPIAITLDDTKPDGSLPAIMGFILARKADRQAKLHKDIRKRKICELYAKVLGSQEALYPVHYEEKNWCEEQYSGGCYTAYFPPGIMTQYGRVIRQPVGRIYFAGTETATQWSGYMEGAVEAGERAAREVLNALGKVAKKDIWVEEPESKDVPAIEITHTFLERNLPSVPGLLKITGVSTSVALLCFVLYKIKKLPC
Method: Determination of MAO inhibition activity with the use of rat forebrain:
The MAO inhibition activity was determined by a method of Prada et al. (J. Pharmacol. Exp. Ther., 248, 400-414 (1989)).
The enzyme reaction was conducted in 300 μl of a solution having the following composition:
^14 C-labelled enzyme substrate
The enzyme source used was a suspension of 1 part by volume of the forebrains of male Wistar rats in 5 parts by volume of a 0.1M potassium phosphate buffer (pH 7.4). The enzyme source was mixed with the test compound and the mixture was prewarmed at 37° C. for 10 min. Then the enzyme substrate was added thereto to initiate the enzyme reaction. After 10 min, 200 μl of 2N hydrochloric acid was added to terminate the reaction.
As the substrates for MAO-A and MAO-B, 5-HT (serotonin) and PEA (β-phenethylamine) each labelled with ^14 C were used, respectively. The specific radioactivities of 5-HT and PEA were regulated to 11.1 MBq/mmol and 29.6 MBq/mmol, respectively, and the concentrations of them were 200 μM and 20 μM, respectively, in the reaction.
The test compound was dissolved in distilled water so that an intended concentration could be obtained in the enzyme reaction. When the test compound was insoluble in water, it was dissolved in dimethyl sulfoxide to obtain a 10% solution.
Diethyl ether and n-heptane were used as […], respectively. After the termination of the enzyme reaction, 3 ml of the solvent was added to the reaction mixture and shaken for 10 min. After centrifugation at 3,000 rpm for about 10 min, the lower aqueous layer was frozen in dry ice/acetone. The upper organic layer was recovered by decantation and the radioactivity thereof was determined with a liquid scintillation counter.
The inhibiting activities of the test compounds against MAO A and MAO B are given at the concentrations of 10^-7 M and 10^-6 M or by IC50 values.

MAO-B = target: T2, MAO-B (Rattus norvegicus, UniProt P19643); experiment: MAO-B inhibition activity with rat forebrain (14C-PEA substrate); assay type: biochemical, rat (male Wistar); details: 10^-5 M, read-out: Inhibiting activity MAO-B (at 10^-5 M)
T2 construct: suspension of 1 part by volume of the forebrains of male Wistar rats; from tissue; host or cells: forebrain of male Wistar rats, suspension in potassium phosphate buffer
T2 sequence (P19643 1-520): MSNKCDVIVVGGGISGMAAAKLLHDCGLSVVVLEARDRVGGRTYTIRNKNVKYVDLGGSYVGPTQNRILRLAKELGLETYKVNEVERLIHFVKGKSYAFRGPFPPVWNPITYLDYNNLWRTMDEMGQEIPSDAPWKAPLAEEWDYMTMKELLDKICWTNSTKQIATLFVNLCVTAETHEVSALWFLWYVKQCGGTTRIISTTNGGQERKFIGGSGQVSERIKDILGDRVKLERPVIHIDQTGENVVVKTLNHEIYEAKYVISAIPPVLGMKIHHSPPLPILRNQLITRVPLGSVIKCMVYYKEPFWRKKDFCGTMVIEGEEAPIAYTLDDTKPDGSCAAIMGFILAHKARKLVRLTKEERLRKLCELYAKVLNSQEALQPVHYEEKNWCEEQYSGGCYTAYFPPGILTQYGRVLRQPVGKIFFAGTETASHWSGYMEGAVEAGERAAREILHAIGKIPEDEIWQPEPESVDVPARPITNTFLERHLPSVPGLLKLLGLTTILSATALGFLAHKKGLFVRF

COCC1CN(c2ccc3nc(C(C)(O)CCC#N)sc3c2)C(=O)O1 (centres unmarked) [Example 37]
IC50 (MAO-A): 45 nM
inhibition at 10 µM (MAO-B): 35%
